Results taken from patent US20190135793A1, “HETEROCYCLIC INHIBITORS OF KDM5 FOR THE TREATMENT OF DISEASE” (Board of Regents, The University of Texas System, priority 2017, published 2019).
pIC50: −log10 of the molar value. Read-outs that look alike come from different tables or passages of the source.

Key:
KDM5B = molecular target: T1, KDM5B (Homo sapiens, UniProt Q9UGL1); assay: biochemical
T1 construct: Full length of KDM5B and KDM4C protein were purchased from Active Motif; purchased Active Motif 31832
T1 sequence (Q9UGL1 whole entry): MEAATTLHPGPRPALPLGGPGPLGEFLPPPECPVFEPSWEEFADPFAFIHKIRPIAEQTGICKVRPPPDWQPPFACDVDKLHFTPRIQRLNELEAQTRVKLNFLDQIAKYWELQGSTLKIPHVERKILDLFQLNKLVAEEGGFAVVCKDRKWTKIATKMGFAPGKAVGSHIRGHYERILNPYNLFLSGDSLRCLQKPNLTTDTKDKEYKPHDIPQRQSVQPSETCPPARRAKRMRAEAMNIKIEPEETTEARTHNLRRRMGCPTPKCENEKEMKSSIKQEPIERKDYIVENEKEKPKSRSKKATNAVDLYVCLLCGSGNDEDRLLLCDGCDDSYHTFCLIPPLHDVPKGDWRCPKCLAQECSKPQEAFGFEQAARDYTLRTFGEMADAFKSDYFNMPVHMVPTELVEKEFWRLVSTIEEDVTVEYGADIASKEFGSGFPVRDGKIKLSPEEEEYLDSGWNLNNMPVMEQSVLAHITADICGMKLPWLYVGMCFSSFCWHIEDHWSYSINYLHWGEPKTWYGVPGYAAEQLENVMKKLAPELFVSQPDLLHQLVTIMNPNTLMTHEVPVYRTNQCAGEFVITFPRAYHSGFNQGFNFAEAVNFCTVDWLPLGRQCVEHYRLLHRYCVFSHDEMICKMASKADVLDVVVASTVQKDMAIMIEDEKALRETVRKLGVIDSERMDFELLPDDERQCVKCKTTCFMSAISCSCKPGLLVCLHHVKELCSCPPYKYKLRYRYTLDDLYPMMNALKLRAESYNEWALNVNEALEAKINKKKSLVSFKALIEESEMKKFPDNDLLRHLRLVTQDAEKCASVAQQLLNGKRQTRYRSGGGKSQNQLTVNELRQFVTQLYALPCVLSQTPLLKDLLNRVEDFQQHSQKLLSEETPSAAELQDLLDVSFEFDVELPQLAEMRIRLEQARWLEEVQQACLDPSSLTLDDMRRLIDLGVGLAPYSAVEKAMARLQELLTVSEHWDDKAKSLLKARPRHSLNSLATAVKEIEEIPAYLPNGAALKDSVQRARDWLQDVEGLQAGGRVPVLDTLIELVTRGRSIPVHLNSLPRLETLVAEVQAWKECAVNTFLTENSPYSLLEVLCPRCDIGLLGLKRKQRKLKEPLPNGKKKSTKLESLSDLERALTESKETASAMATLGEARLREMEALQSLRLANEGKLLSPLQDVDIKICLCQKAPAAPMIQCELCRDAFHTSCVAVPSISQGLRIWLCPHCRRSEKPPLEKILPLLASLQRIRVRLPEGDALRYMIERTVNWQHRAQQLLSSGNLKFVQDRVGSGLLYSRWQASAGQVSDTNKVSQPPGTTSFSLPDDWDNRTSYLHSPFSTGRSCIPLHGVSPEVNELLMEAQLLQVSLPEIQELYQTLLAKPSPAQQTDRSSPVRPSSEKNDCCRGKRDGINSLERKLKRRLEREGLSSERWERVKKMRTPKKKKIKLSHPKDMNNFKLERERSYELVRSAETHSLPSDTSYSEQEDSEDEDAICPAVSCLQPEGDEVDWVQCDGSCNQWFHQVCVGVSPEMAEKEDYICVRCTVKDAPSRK
Protocol: (§1) KDM4C and KDM5B AlphaScreen Assay Material and Method
(§2) Compounds disclosed herein were (and can be) screened using the following assay.
Peptides used in all experiments were purchased from Anaspe. […] Final concentration of KDM5B and KDM4C used in the assay were 0.5 nM and 0.2 nM. Final concentration of peptides for 5B and 4C used in the assay were 3 nM.
(§3) 4 μL of KDM5B or KDM4C protein were added to 384-well OptiPlate by using multiflow, followed by 4 μl of either buffer or compound. Plates were sealed, spun down and incubated at RT for 15 min. 4 μl of biotinylated peptide was added to the plate, the plate was incubated at room temperature for 25 minutes (KDM5B) and 30 minutes (KDM4C) after sealed and spun down. Streptavidin donor beads and acceptor beads were diluted and mixed in the detection buffer with 7.5 mM EDTA, followed by adding 8 μl of acceptor and donor beads mix to the plate, before the plate was sealed and incubated at room temperature for 3 h or overnight at dark. The plate was read on Envision plate reader (PerkinElmer) using Alphascreen protocol. IC50s were calculated in GraphPad Prism 6.

KDM4C = molecular target: T2, KDM4C (Homo sapiens, UniProt Q9H3R0); assay: KDM4C AlphaScreen assay; assay type: biochemical
T2 construct: Full length of KDM5B and KDM4C protein were purchased from Active Motif; purchased Active Motif 31858
T2 sequence (Q9H3R0 1-1056): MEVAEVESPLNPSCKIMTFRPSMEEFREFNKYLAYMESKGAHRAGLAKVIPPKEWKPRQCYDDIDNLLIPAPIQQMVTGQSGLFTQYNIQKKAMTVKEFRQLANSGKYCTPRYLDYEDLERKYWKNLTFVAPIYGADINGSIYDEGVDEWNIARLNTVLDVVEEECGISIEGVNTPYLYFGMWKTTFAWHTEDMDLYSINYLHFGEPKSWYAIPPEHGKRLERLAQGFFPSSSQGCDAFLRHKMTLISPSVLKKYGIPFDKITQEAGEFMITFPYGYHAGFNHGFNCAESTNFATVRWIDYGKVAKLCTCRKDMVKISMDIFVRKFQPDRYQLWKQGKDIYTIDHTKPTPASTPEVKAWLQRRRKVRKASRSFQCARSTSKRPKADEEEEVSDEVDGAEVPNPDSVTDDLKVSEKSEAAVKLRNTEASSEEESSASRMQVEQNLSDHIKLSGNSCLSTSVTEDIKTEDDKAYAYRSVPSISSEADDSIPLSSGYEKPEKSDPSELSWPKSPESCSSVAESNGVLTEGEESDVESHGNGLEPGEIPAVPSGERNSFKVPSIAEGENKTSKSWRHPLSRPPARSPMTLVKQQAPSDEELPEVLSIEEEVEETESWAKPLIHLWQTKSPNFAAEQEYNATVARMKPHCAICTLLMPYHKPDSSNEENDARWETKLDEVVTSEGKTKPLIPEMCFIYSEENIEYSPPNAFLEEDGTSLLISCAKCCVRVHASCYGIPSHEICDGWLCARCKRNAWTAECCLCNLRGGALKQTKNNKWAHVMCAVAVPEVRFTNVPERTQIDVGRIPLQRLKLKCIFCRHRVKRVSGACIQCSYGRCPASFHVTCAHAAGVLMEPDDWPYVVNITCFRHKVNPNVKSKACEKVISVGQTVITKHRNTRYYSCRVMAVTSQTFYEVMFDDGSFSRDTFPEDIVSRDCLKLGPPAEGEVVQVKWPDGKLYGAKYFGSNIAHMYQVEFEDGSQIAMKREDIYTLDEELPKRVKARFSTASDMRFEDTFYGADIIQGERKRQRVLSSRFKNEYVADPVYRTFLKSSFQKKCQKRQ
Protocol: as §1, §2
Peptides used in all experiments were purchased from Anaspe. Full length of KDM5B and KDM4C protein were purchased from Active Motif: KDM5B (cat#31832) and KDM4C (Cat #31858). Final concentration of KDM5B and KDM4C used in the assay were 0.5 nM and 0.2 nM. Final concentration of peptides for 5B and 4C used in the assay were 3 nM.
as §3, with “AlphaScreen assays was conducted as following protocol: buffer used to make compound plate or DMSO is composed of 50 mM HEPES pH 7.4, 0.003% Tween-20; buffer used to dilute enzyme is composed of 50 mM HEPES pH 7.4, 0.003% Tween-20, 0.01% BSA, 500 μM TCEP; and buffer used to dilute the substrate is composed of 50 mM HEPES pH 7.4, 0.003% Tween-20, (NH4)2Fe(SO4)2 15 μM, alpha-ketoglutaric acid 4 μM and L-ascorbic acid 100 μM. 4 μL” for “4 μL”

[1] = AlphaScreen, full length KDM4C 0.2 nM, biotinylated H3K9Me3 peptide 3 nM, 30 minutes at room temperature
[2] = AlphaScreen, full length KDM5B 0.5 nM, biotinylated H3K4Me3 peptide 3 nM, 25 minutes at room temperature, read-out: KDM5B (IC50)

SMILES | pIC50 (KDM5B) | pIC50 (KDM4C; [1]) | pIC50 (KDM5B; [2]) | pIC50 (KDM4C)
CC(C)c1c(O)nc(-n2ccnc2)nc1OCCc1ccncc1 [Example 129, 2-(1H-Imidazol-1-yl)-5-(propan-2-yl)-6-[2-(pyridin-4-yl)ethoxy]pyrimidin-4-ol] | 7.57 | 5.95 |  | 
CC(C)c1c(O)nc(-n2ccnc2)nc1-c1cnn(Cc2ccccn2)c1 [Example 64, 2-(1H-Imidazol-1-yl)-5-(propan-2-yl)-6-[1-(pyridin-2-ylmethyl)-1H-pyrazol-4-yl]-pyrimidin-4-ol] |  | 5.70 | 7.72 | 
CC(C)c1c(O)nc(-n2ccnc2)nc1-c1cnn(CC(C)(C)O)c1 [Example 81, 6-[1-(2-Hydroxy-2-methyl-propyl)-1H-pyrazol-4-yl]-2-(1H-imidazol-1-yl)-5-(propan-2-yl)pyrimidin-4-ol] | 7.22 | 5.39 |  | 
CC(C)c1c(O)nc(-n2ccnc2)nc1-c1cnn(CC(=O)NCCS(C)(=O)=O)c1 [Example 107, 2-{4-[6-Hydroxy-2-(1H-imidazol-1-yl)-5-(propan-2-yl)pyrimidin-4-yl]-1H-pyrazol-1-yl}-N-(2-methane-sulfonylethyl)acetamide] |  | 5.91 | 7.72 | 
CC(=O)N1CCN(CCOc2nc(-n3ccnc3)nc(O)c2C(C)C)CC1 [Example 125, 1-[4-(2-{[6-Hydroxy-2-(1H-imidazol-1-yl)-5-(propan-2-yl)pyrimidin-4-yl]oxy}ethyl)-piperazin-1-yl]ethan-1-one] |  | 5.63 | 7.85 | 
CC(C)c1c(O)nc(-n2ccnc2)nc1-c1cnn(CC(=O)N2CCOCC2)c1 [Example 117, 2-{4-[6-Hydroxy-2-(1H-imidazol-1-yl)-5-(propan-2-yl)pyrimidin-4-yl]-1H-pyrazol-1-yl}-1-(morpholin-4-yl)ethan-1-one] | 7.51 | 5.71 |  | 
Cc1nc(-n2ccnc2C)nc(O)c1C(C)C [Example 148, 6-Methyl-2-(2-methyl-1H-imidazol-1-yl)-5-(propan-2-yl)pyrimidin-4-ol] | 6.32 | 5.02 |  | 
Cc1nc(-c2nccs2)nc(O)c1C(C)C [Example 158, 6-Methyl-5-(propan-2-yl)-2-(1,3-thiazol-2-yl)-pyrimidin-4-ol] |  | 4.52 | 5.62 | 
CC(C)c1c(O)nc(-n2ccnc2)nc1-c1cnn(CC(=O)NCCc2ccccn2)c1 [Example 105, 2-{4-[6-Hydroxy-2-(1H-imidazol-1-yl)-5-(propan-2-yl)pyrimidin-4-yl]-1H-pyrazol-1-yl}-N-[2-(pyridin-2-yl)ethyl]acetamide] | 7.77 | 5.97 |  | 
CC(C)c1c(O)nc(-n2ccnc2)nc1OCC(=O)N1CCN(C)CC1 [Example 16, 2-{[6-hydroxy-2-(1H-imidazol-1-yl)-5-(propan-2-yl)pyrimidin-4-yl]oxy}-1-(4-methylpiperazin-1-yl)ethan-1-one] | 7.59 |  |  | 5.24
CC(C)c1c(O)nc(-n2ccnc2)nc1-c1ccc(C(=O)O)nc1 [Example 121, 5-[6-Hydroxy-2-(1H-imidazol-1-yl)-5-(propan-2-yl)pyrimidin-4-yl]pyridine-2-carboxylic acid] | 7.74 | 6.08 |  | 
Cc1cn(-c2nc(O)c(C(C)C)c(OCc3cccnc3)n2)cn1 [Example 151, 2-(4-Methyl-1H-imidazol-1-yl)-5-(propan-2-yl)-6-(pyridin-3-ylmethoxy)-pyrimidin-4-ol] |  | 5.06 | 6.23 | 
CC(C)c1c(O)nc(-n2ccnc2)nc1-c1cnn(CC(=O)N2CCCC(N)C2)c1 (stereo not shown) [Example 98, 1-(3-Aminopiperidin-1-yl)-2-{4-[6-hydroxy-2-(1H-imidazol-1-yl)-5-(propan-2-yl)pyrimidin-4-yl]-1H-pyrazol-1-yl}ethan-1-one] | 8.10 | 6.30 |  | 
CC(C)c1c(O)nc(-n2ccnc2)nc1-c1cnn(CC(=O)NCCCCN(C)C)c1 [Example 93, N-[4-(Dimethylamino)butyl]-2-{4-[6-hydroxy-2-(1H-imidazol-1-yl)-5-(propan-2-yl)pyrimidin-4-yl]-1H-pyrazol-1-yl}acetamide] | 8.22 | 6.32 |  | 
CC(C)c1c(O)nc(-n2ccnc2)nc1-n1ccnc1 [Example 28b, 2,6-di(1H-imidazol-1-yl)-5-isopropylpyrimidin-4-ol] | 7.72 | 5.78 |  | 
Cc1nc(-n2ccnc2)nc(O)c1C(C)C [Example 22, 2-(1H-imidazol-1-yl)-5-isopropyl-6-methylpyrimidin-4-ol] | 7.80 | 6.33 |  | 
Cc1noc(C)c1-c1nc(-n2ccnc2)nc(O)c1C(C)C [Example 84, 6-(Dimethyl-1,2-oxazol-4-yl)-2-(1H-imidazol-1-yl)-5-(propan-2-yl)pyrimidin-4-ol] | 6.72 | 4.97 |  | 
CC(C)c1c(O)nc(-n2ccnc2)nc1OCCN1CCNCC1 [Example 124, 2-(1H-Imidazol-1-yl)-6-[2-(piperazin-1-yl)ethoxy]-5-(propan-2-yl)pyrimidin-4-ol] |  | 5.92 | 8.00 | 
CC(C)c1c(O)nc(-n2ccnc2)nc1-c1ccc(C(N)=O)nc1 [Example 9, 5-(6-hydroxy-2-(1H-imidazol-1-yl)-5-isopropylpyrimidin-4-yl)picolinamide] |  | 5.62 | 7.89 | 
CNCCN(C)C(=O)Cn1cc(-c2nc(-n3ccnc3)nc(O)c2C(C)C)cn1 [Example 95, 2-{4-[6-Hydroxy-2-(1H-imidazol-1-yl)-5-(propan-2-yl)pyrimidin-4-yl]-1H-pyrazol-1-yl}-N-methyl-N-[2-(methylamino)ethyl]-acetamide] | 8.22 | 6.56 |  | 
CC(C)c1c(O)nc(-n2ccnc2)nc1-c1cnn(CC(=O)NCCO)c1 [Example 104, 2-{4-[6-Hydroxy-2-(1H-imidazol-1-yl)-5-(propan-2-yl)pyrimidin-4-yl]-1H-pyrazol-1-yl}-N-(2-hydroxy-ethyl)acetamide] | 7.82 | 5.86 |  | 
Cc1nc(-c2scnc2C(=O)NCc2ccccc2)nc(O)c1C(C)C [Example 150, N-benzyl-5-[6-methyl-4-oxo-5-(propan-2-yl)-1,4-dihydropyrimidin-2-yl]-1,3-thiazole-4-carboxamide] | 5.95 | 4.77 |  | 
CC(C)c1c(O)nc(-n2ccnc2)nc1-c1cnn(CC(=O)NCCN2CCCC2)c1 [Example 6, 2-(4-(6-Hydroxy-2-(1H-imidazol-1-yl)-5-isopropylpyrimidin-4-yl)-1H-pyrazol-1-yl)-N-(2-(pyrrolidin-1-yl)ethyl)acetamide] | 8.40 | 6.67 |  | 
